From patent publication US8759535B2, “Substituted fused imidazole derivatives, pharmaceutical compositions, and methods of use thereof” (High Point Pharmaceuticals, LLC, priority 2010, dated 2014)
Structures can show the parent of a compound that is named as a salt.

System: HMOX1
Test: HMOX1 Protein Assay (immunostaining of HO-1 in NHLF cells, GE InCell 1000)
Format: cell-based
Settings: Homo sapiens, fold change above DMSO treated cells, 3 μM compound (asterisk), 16 h
How it was run: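 Fold induction of HO-1 over vehicle, normally at 5 μM compound (asterisk marks 3 μM), in 0.8% DMSO medium. Normal human lung fibroblasts were treated 16 h, then paraformaldehyde-fixed, anti-HO-1/Alexa 488 stained with Hoechst, and read by high-content imaging.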

Structure (SMILES)	fold induction at 3 µM
CCN(CC)CCCNC(=O)c1ccc2c(c1)nc(Nc1nc3ccc(C(F)(F)F)cc3s1)n2C [Example 353, 1-Methyl-2-(6-trifluoromethyl-benzothiazol-2-ylamino)-1H-benzoimidazole-5-carboxylic acid (3-diethylamino-propyl)-amide]	23
Cn1c(Nc2nc3ccc(OC(F)(F)F)cc3s2)nc2cc(C(=O)NCCCN)ccc21 [Example 344, 1-Methyl-2-(6-trifluoromethoxy-benzothiazol-2-ylamino)-1H-benzoimidazole-5-carboxylic acid (3-amino-propyl)-amide hydrochloride]	25.7
Cn1c(Nc2nc3ccc(C(F)(F)F)cc3s2)nc2cc(C(=O)NC[C@H]3CC[C@H](O)CC3)ccc21 [Example 234, 1-Methyl-2-(6-trifluoromethyl-benzothiazol-2-ylamino)-1H-benzoimidazole-5-carboxylic acid (trans-4-hydroxy-cyclohexylmethyl)-amide]	30.9
C[C@@H](CO)CCNC(=O)c1ccc2c(c1)nc(Nc1nc3ccc(Cl)cc3s1)n2C [Example 224, 2-(6-Chloro-benzothiazol-2-ylamino)-1-methyl-1H-benzoimidazole-5-carboxylic acid ((R)-4-hydroxy-3-methyl-butyl)-amide]	15.5
Cn1c(Nc2nc3ccc(Cl)cc3s2)nc2cc(C(=O)NCCS(=O)(=O)CCO)ccc21 [Example 278, 2-(6-Chloro-benzothiazol-2-ylamino)-1-methyl-1H-benzoimidazole-5-carboxylic acid [2-(2-hydroxy-ethanesulfonyl)-ethyl]-amide]	36.5

Same assay, conditions: Homo sapiens, fold change above DMSO treated cells, 5 μM compound, 16 h

Structure (SMILES)	fold induction at 5 µM
CN1CC[C@H](NC(=O)c2ccc3c(c2)nc(Nc2nc4ccc(Cl)cc4s2)n3C)C1 [Example 317, 2-(6-Chloro-benzothiazol-2-ylamino)-1-methyl-1H-benzoimidazole-5-carboxylic acid ((S)-1-methyl-pyrrolidin-3-yl)amide]	16.3
CCOCCNC(=O)c1cc2nc(Nc3nc4ccc(OC(F)(F)F)cc4s3)n(C)c2cc1F [Example 57, 6-Fluoro-1-methyl-2-(6-trifluoromethoxy-benzothiazol-2-ylamino)-1H-benzoimidazole-5-carboxylic acid (2-ethoxy-ethyl)-amide]	32
CCNC(=O)[C@H](C)NC(=O)c1ccc2c(c1)nc(Nc1nc3ccc(OC(F)(F)F)cc3s1)n2C [Example 81, 1-Methyl-2-(6-trifluoromethoxy-benzothiazol-2-ylamino)-1H-benzoimidazole-5-carboxylic acid ((S)-1-ethylcarbamoyl-ethyl)-amide]	17
CCOC(=O)C1(NC(=O)c2ccc3c(c2)nc(Nc2nc4ccc(OC(F)(F)F)cc4s2)n3C)CC1 [Example 144, 1-{[1-Methyl-2-(6-trifluoromethoxy-benzothiazol-2-ylamino)-1H-benzimidazole-5-carbonyl]-amino}-cyclopropanecarboxylic acid ethyl ester]	7.3
Cn1c(Nc2nc3ccc(Cl)cc3s2)nc2cc(C(=O)NCC(C)(C)CO)ccc21 [Example 218, 2-(6-Chloro-benzothiazol-2-ylamino)-1-methyl-1H-benzoimidazole-5-carboxylic acid (3-hydroxy-2,2-dimethyl-propyl)-amide]	39.2
COC(C)(C)CNC(=O)c1ccc2c(c1)nc(Nc1nc3ccc(OC(F)(F)F)cc3s1)n2C [Example 22, 1-Methyl-2-(6-trifluoromethoxy-benzothiazol-2-ylamino)-1H-benzoimidazole-5-carboxylic acid (2-methoxy-2-methyl-propyl)-amide]	18.7
CN1CC[C@@H](NC(=O)c2ccc3c(c2)nc(Nc2nc4ccc(Cl)cc4s2)n3C)C1 [Example 316, 2-(6-Chloro-benzothiazol-2-ylamino)-1-methyl-1H-benzoimidazole-5-carboxylic acid ((R)-1-methyl-pyrrolidin-3-yl)-amide]	18.1
COC(=O)c1ccc2c(c1)nc(Nc1nc3cc(F)c(F)cc3s1)n2C [Example 33, 2-(5,6-Difluoro-benzothiazol-2-ylamino)-1-methyl-1H-benzoimidazole-5-carboxylic acid methyl ester]	11.7
CN(C)CC1CCCN(C(=O)CNC(=O)c2ccc3c(c2)nc(Nc2nc4ccc(Cl)cc4s2)n3C)C1 (stereo not drawn) [Example 461, 2-(6-Chloro-benzothiazol-2-ylamino)-1-methyl-1H-benzoimidazole-5-carboxylic acid [2-(3-dimethylaminomethyl-piperidin-1-yl)-2-oxo-ethyl]-amide]	27.1
CCn1c(Nc2nc3ccc(Oc4cccnc4)cc3s2)nc2cc(C(=O)NCCOC)ccc21 [Example 191, 1-Ethyl-2-[6-(pyridin-3-yloxy)-benzothiazol-2-ylamino]-1H-benzoimidazole-5-carboxylic acid (2-methoxy-ethyl)-amide]	33.8
CCOCCNC(=O)c1ccc2c(c1)nc(Nc1nc3ccc(C(F)(F)F)cc3s1)n2C [Example 85, 1-Methyl-2-(6-trifluoromethyl-benzothiazol-2-ylamino)-1H-benzoimidazole-5-carboxylic acid (2-ethoxy-ethyl)-amide]	11.6
Cn1c(Nc2nc3ccc(OC(F)(F)F)cc3s2)nc2cc(C(=O)NC3CCNCC3)ccc21 [Example 93, 1-Methyl-2-(6-trifluoromethoxy-benzothiazol-2-ylamino)-1H-benzoimidazole-5-carboxylic acid piperidin-4-ylamide hydrochloride]	11.3
CNCCOCCNC(=O)c1ccc2c(c1)nc(Nc1nc3ccc(OC(F)(F)F)cc3s1)n2C [Example 271, 1-Methyl-2-(6-trifluoromethoxy-benzothiazol-2-ylamino)-1H-benzoimidazole-5-carboxylic acid [2-(2-methylamino-ethoxy)-ethyl]-amide hydrochloride]	69.9
Cn1c(Nc2nc3ccc(OC(F)(F)F)cc3s2)nc2cc(C(=O)NCCN3CCCC(O)C3)ccc21 (stereo not drawn) [Example 193, 1-Methyl-2-(6-trifluoromethoxy-benzothiazol-2-ylamino)-1H-benzoimidazole-5-carboxylic acid [2-(3-hydroxy-piperidin-1-yl)ethyl]-amide]	11.1
CCCNC(=O)c1ccc2c(c1)nc(Nc1nc3ccc(OC(F)(F)F)cc3s1)n2C [Example 12, 1-Methyl-2-(6-trifluoromethoxy-benzothiazol-2-ylamino)-1H-benzoimidazole-5-carboxylic acid propylamide]	16.2
COCCOCCNC(=O)c1ccc2c(c1)nc(Nc1nc3ccc(Cl)cc3s1)n2C [Example 261, 2-(6-Chloro-benzothiazol-2-ylamino)-1-methyl-1H-benzoimidazole-5-carboxylic acid [2-(2-methoxy-ethoxy)-ethyl]-amide]	35.7
CCOCCCNC(=O)c1ccc2c(c1)nc(Nc1nc3ccc(OC(F)(F)F)cc3s1)n2C [Example 14, 1-Methyl-2-(6-trifluoromethoxy-benzothiazol-2-ylamino)-1H-benzoimidazole-5-carboxylic acid (3-ethoxy-propyl)-amide]	22
Cn1c(Nc2nc3ccc(OC(F)(F)F)cc3s2)nc2cc(C(=O)NCC(=O)N3CCC(CF)CC3)ccc21 [Example 448, 1-Methyl-2-(6-trifluoromethoxy-benzothiazol-2-ylamino)-1H-benzoimidazole-5-carboxylic acid [2-(4-fluoromethyl-piperidin-1-yl)-2-oxo-ethyl]-amide]	36.7
Cc1ccc2nc(Nc3nc4cc(C(=O)NCC(=O)N(C)C)ccc4n3C)sc2c1 [Example 363, 1-Methyl-2-(6-methyl-benzothiazol-2-ylamino)-1H-benzoimidazole-5-carboxylic acid dimethylcarbamoylmethyl-amide]	10
Cn1c(Nc2nc3ccc(OC(F)(F)F)cc3s2)nc2cc(C(=O)NCC(=O)N3CCC(O)C3)ccc21 (stereo not drawn) [Example 398, 1-Methyl-2-(6-trifluoromethoxy-benzothiazol-2-ylamino)-1H-benzoimidazole-5-carboxylic acid [2-(3-hydroxy-pyrrolidin-1-yl)-2-oxo-ethyl]-amide]	31.7
COCC(C)NC(=O)c1ccc2c(c1)nc(Nc1nc3ccc(OC(F)(F)F)cc3s1)n2C (stereo not drawn) [Example 20, 1-Methyl-2-(6-trifluoromethoxy-benzothiazol-2-ylamino)-1H-benzoimidazole-5-carboxylic acid (2-methoxy-1-methyl-ethyl)-amide]	18.6
Cn1c(Nc2nc3ccc(OC(F)(F)F)cc3s2)nc2cc(C(=O)NCCn3ccnc3)ccc21 [Example 327, 1-Methyl-2-(6-trifluoromethoxy-benzothiazol-2-ylamino)-1H-benzoimidazole-5-carboxylic acid (2-imidazol-1-yl-ethyl)-amide]	31.9
COCCn1c(Nc2nc3ccc(Cl)cc3s2)nc2cc(C(=O)NC3CCN(CCO)CC3)ccc21 [Example 301, 2-(6-Chloro-benzothiazol-2-ylamino)-1-(2-methoxy-ethyl)-1H-benzoimidazole-5-carboxylic acid [1-(2-hydroxy-ethyl)-piperidin-4-yl]-amide]	27.8
CC(O)COCCNC(=O)c1ccc2c(c1)nc(Nc1nc3ccc(OC(F)(F)F)cc3s1)n2C (stereo not drawn) [Example 244, 1-Methyl-2-(6-trifluoromethoxy-benzothiazol-2-ylamino)-1H-benzoimidazole-5-carboxylic acid [2-(2-hydroxy-propoxy)-ethyl]-amide]	28
COC(=O)c1ccc2c(c1)nc(Nc1nc3ccc(F)cc3s1)n2C [Example 112, 2-(6-Fluoro-benzothiazol-2-ylamino)-1-methyl-1H-benzoimidazole-5-carboxylic acid methyl ester]	17.5
